Where two headings read alike, the source gives them in different places.
Experiments:
Test in all cases: KINOMEscan Assay (DiscoverX)
Type in all cases: binding
Conditions in all cases: read-out: % DMSO Ctrl
CSNK1G2 = biological target: T1, CSNK1G2 (Homo sapiens, UniProt P78368)
T1 construct: purchased DiscoverX

FLT3 = biological target: T2, FLT3 (Homo sapiens, UniProt P36888)
T2 construct: purchased DiscoverX
T2 sequence (P36888 27-993): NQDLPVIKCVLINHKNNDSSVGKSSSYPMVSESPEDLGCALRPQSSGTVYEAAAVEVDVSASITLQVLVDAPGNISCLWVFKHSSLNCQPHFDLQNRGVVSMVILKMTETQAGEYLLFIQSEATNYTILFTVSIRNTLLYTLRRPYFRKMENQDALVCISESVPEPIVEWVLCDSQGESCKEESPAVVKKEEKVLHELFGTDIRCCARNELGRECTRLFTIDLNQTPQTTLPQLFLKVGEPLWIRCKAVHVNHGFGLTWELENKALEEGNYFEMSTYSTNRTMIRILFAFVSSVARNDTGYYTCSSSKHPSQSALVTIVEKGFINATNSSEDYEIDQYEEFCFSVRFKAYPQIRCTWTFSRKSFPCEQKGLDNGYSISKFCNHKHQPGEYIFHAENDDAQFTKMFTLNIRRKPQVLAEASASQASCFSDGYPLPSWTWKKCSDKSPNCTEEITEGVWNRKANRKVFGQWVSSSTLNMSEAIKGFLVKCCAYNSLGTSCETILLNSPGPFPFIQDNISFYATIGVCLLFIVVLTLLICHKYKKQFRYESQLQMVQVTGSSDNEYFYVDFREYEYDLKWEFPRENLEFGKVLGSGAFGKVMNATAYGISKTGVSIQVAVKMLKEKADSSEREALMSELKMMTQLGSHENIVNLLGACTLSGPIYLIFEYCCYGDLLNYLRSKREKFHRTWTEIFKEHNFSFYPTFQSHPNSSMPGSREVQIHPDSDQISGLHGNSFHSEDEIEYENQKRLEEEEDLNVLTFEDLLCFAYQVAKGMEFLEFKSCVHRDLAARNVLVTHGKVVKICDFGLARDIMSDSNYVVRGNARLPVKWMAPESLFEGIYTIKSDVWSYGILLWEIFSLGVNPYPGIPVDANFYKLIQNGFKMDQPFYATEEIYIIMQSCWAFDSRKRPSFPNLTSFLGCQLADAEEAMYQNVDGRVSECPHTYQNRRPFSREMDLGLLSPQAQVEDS

FLT3-autoinhibited = biological target: T3, FLT3-autoinhibited (Homo sapiens, UniProt P36888)
T3 construct: purchased DiscoverX
T3 sequence (P36888 564-993 limits assumed): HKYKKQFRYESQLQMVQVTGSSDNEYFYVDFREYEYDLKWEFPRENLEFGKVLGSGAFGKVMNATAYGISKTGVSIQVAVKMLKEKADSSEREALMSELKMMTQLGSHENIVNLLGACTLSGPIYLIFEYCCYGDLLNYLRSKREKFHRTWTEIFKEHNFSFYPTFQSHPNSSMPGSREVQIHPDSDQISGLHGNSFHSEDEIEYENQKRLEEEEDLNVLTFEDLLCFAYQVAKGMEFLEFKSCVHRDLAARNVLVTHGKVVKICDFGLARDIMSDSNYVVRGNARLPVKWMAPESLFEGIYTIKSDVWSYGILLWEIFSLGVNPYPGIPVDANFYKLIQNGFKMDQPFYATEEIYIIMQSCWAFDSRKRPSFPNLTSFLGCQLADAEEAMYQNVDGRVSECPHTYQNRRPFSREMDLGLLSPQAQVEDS

PIK3C2G = biological target: T4, PIK3C2G (Homo sapiens, UniProt O75747)
T4 construct: purchased DiscoverX
T4 sequence (O75747 1-1486): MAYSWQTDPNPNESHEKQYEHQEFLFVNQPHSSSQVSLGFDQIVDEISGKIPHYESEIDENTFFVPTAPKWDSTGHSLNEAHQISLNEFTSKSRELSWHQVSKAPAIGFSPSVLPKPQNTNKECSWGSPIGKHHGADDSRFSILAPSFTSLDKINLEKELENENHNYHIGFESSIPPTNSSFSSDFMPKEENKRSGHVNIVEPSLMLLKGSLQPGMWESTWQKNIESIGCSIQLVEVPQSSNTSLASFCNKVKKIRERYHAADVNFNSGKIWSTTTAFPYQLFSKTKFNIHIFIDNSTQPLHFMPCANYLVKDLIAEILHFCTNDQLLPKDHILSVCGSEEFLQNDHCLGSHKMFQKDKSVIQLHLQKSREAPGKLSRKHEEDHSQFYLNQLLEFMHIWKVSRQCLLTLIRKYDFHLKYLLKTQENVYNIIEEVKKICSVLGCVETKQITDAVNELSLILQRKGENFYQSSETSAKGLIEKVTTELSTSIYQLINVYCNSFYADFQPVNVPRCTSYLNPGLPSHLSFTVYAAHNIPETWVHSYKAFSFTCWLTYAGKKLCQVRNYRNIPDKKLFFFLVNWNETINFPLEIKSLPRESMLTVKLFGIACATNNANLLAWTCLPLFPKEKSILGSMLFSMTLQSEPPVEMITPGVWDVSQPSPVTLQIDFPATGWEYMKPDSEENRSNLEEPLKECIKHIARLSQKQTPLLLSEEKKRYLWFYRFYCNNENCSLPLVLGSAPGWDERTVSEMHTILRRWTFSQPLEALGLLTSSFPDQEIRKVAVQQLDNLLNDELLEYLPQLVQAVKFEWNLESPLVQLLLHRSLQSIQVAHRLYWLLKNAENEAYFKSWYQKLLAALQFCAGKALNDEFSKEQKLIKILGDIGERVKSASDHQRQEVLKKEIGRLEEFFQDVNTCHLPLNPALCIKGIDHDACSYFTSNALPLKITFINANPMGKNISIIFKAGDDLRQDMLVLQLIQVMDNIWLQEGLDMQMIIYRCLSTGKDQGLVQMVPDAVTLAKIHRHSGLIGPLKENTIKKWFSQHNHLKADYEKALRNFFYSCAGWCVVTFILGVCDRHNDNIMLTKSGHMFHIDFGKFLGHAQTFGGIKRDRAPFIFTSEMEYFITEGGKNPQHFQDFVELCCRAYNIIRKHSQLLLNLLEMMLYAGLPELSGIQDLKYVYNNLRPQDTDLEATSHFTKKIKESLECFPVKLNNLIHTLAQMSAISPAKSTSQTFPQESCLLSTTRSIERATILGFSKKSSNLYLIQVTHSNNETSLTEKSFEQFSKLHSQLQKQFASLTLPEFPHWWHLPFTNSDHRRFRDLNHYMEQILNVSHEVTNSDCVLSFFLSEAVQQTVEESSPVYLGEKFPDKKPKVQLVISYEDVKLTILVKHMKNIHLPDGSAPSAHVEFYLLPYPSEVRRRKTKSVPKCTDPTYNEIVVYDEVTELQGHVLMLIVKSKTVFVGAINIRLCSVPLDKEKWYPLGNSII

T1 sequence (P78368 whole entry): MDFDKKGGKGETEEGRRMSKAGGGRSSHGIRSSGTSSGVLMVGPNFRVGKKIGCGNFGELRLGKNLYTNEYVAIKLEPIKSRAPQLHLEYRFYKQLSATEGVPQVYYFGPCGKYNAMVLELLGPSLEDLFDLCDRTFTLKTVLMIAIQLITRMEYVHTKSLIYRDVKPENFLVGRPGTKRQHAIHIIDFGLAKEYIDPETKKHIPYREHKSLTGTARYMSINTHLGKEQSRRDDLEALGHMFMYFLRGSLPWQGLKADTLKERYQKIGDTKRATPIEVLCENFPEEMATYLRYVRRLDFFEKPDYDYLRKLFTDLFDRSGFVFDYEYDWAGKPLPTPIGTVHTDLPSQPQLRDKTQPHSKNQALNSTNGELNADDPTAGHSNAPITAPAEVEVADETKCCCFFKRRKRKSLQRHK

Structure (SMILES) | remaining binding at 10 µM (CSNK1G2) [%] | remaining binding at 10 µM (CSNK1G2; CSNK1G2, 10 μM) [%] | remaining binding at 10 µM (FLT3) [%] | remaining binding at 10 µM (FLT3-autoinhibited) [%] | remaining binding at 10 µM (PIK3C2G) [%] | remaining binding at 10 µM (FLT3; FLT3, 10 μM) [%] | remaining binding at 10 µM (FLT3-autoinhibited; FLT3-autoinhibited, 10 μM) [%] | remaining binding at 10 µM (PIK3C2G; PIK3C2G, 10 μM) [%]
COc1ccc2c(c1)[nH]c1c(C)nccc12 [Harmine, reference compound] | 19 | – | – | – | – | – | – | –
C#CCn1c2cc(OC)ccc2c2ccnc(C)c21 [Compound 20-23a, 3-(7-Methoxy-1-methyl-β-carbolin-9-yl)-propan-1-yne] | – | 56 | 65 | 100 | 38 | – | – | –
COc1ccc2c3ccnc(C)c3n(CCCc3noc(N)n3)c2c1 [Compound 20-13, 3-(3-(7-Methoxy-1-methyl-β-carbolin-9-yl)propyl)-5-amino-1,2,4-oxadiazole] | 91 | – | 86 | 85 | 1.2 | – | – | –
COc1ccc2c(c1)[nH]c1c(C)nc(CO)cc12 [Compound 2-8, (1-Methyl-7-methoxy-9H-pyrido[3,4-b]indol-3-yl)methanol] | – | – | – | – | – | 100 | 100 | 36

Source: patent US12421232B2, “Kinase inhibitor compounds and compositions and methods of use” (ICAHN SCHOOL OF MEDICINE AT MOUNT SINAI, priority 2018, dated 2025)
